Literature values as cited in patent publication US20250177296A1, “SLURRY AND SOLUTION COMPOSITIONS” (MIRAKI INNOVATION THINK TANK LLC, priority 2018, published 2025).

Conditions: pretreatment with 2% lidocaine

CCN(CC)CC(=O)Nc1c(C)cccc1C [lidocaine]
Effect of pretreatment on pain response associated with hypertonic saline: attenuates pain response
